Results on 9 compounds are retold here after patent publication US5663207A, “Gem-dichlorocyclopropanes as antitumor agents” (priority 1995, dated 1997).

One test has as its target T1, estrogen receptor (Rattus norvegicus, UniProt P06211).
T1 construct: ovariectomized rat uterine cytosolic estrogen receptor preparation; from tissue; host or cells: uterine cytosol of ovariectomized Sprague-Dawley rats (immature rats from Sasco are named as uterus source, mature ovariectomized rats)
T1 sequence (P06211 1-600): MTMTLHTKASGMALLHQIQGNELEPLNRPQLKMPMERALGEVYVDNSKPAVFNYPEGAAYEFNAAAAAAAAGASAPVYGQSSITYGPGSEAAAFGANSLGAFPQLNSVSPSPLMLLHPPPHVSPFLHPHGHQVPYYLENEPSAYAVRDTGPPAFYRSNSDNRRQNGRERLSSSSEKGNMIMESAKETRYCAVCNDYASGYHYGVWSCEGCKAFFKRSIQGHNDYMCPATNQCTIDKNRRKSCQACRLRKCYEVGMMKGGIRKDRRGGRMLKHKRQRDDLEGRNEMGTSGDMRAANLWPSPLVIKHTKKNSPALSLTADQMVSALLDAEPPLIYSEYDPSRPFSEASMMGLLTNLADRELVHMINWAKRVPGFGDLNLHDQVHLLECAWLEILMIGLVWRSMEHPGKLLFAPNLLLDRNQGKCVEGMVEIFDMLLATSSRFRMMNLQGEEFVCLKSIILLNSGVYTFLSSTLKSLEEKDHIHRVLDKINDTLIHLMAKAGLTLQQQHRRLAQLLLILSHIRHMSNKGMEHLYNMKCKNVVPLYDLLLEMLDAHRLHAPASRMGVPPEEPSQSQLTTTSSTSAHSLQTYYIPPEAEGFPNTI
In words: Receptor binding assay: displacement of [3H]-estradiol from rat uterine cytosol. Also on record: species or system rat (Sprague-Dawley). The note with it: for [3H]-estradiol displacement curve (in words): rat uterine cytosolic estrogen receptor; for RBA (relative binding affinity): relative to estradiol = 100%. The source says: (§1) The biological evaluation of the test compounds consisted of the in vitro rat cytosolic estradiol receptor binding assay, the in vivo immature mouse uterotrophic (estrogenic) and antiuterotrophic (antiestrogenic) assays, and the in vitro suppression of the proliferation of the ER positive MCF-7 human breast cancer cell line. Estradiol (pure agonist), TAM (agonist in mice and antagonist in MCF-7), MER 25 (pure antagonist) and Analog II (antagonist in mice) were used in the assay as standards.
(§2) Vital-free immature female Swiss-Webster mice were obtained at 17-19 days of age from Sasco weighing 8-10 g, and were used in the uterotrophic and antiuterotrophic assays. Immature female Sprague-Dawley rats, obtained at 17-19 days of age from Sasco, weighing 28-33 g, were used as sources of uteri for the estradiol receptor binding assay. Animals were housed in wire topped polycarbonate cages at six animals per cage, with the environment controlled at 25° C. and a 12 h light/dark cycle. The animals received a diet of Wayne Lab Blox rodent chow and tap water ad libitum.
The RBAs of the test compounds were determined by the displacement of [^3 H]-estradiol in vitro, as described previously (DAY, B. W., […], R. A., JAIN, P., PENTO, J. T., MOUSISSIAN, G. K. AND MEYER, K. L. (1991), "Synthesis and biological evaluation of a series of 1,1-dichloro-2,2,3-triarylcyclopropanes as pure antiestrogens", Journal of Medicinal Chemistry, 34, 842; KORENMAN, S. G. (1969), "Comparative binding affinity of estrogens and its relation to estrogenic potency", Steroid, 13, 163). Mature female Sprague-Dawley rats were ovariectomized at least two weeks prior to the receptor binding experiment. Each test compound was assayed at three concentrations in duplicate over a range of 10^-3 -10^-5 M and 10^-6 -10^-8 M for the estradiol standard. The non-specific binding was determined by a parallel incubation of each compound with the addition of diethylstilbestrol to give a final concentration of 2×10^-5 M DES which was sufficient to saturate all the estrogen receptors present in the cytosolic fraction. Specific displacement for each compound was determined by subtraction of nonspecific displacement from total displacement. The [^3 H]-estradioldisplacement curve for each test compound was determined by linear repression analysis and plotted graphically. The relative binding affinity for each compound was calculated (BLISS, C.I. (1967), "The statistics in biology", McGraw Hill, Inc: New York).
^a Determined by competitive radiometric binding assay with rat
uterine cytosol as a source of receptor, [^3 H]estradiol as tracer,
and dextrancoated charcoal as absorbant for free ligand.
^c Binding affinities are expressed relative to that of estradiol =
100% (RBA = relative binding affinity) and are the average of duplicate
determinations minus nonspecific binding.
The relative binding affinities (RBAs), as determined by the competitive radiometric binding assay and measured by [^3 H]-estradiol displacement from the ovariectomized rat uterine cytosolic estrogen receptor preparation, after subtracting non-specific receptor binding, were calculated for all of the synthesized target compounds, TAM, MER 25, Analog II, and estradiol. The displacement curves were plotted as percent receptor-bound [^3 H]-estrodiol versus concentration of test compounds (not shown) and the receptor binding affinity of each compound is presented in Table II.

The subject of test [1] is MCF-7 human breast cancer cells. The experiment in a line: In vitro MCF-7 human breast cancer cell growth inhibition assay. It counts as cell-based. As to conditions: for inhibition at 1 µM: Homo sapiens.
From the text: as §1
MCF-7 (estrogen-receptor positive) human breast cancer cells (obtained from the Michigan Cancer Foundation, Detroit, Mich.) were grown at 37° C. in 75 cm^2 tissue culture (T-75) flasks, as monolayer cultures in RPMI 1640 phenol red-free media supplemented with 2 mM L-glutamine, gentamicin (50 μg/mL), penicillin (100 units/mL), streptomycin (100 μg/mL ) and calf serum (5%). Cultures were grown in an incubator 37° C. in a humid 5% CO2 atmosphere, and fed on alternate days. Expotential growth was maintained by subculturing at eight day intervals when the cells per T-75 flask reached 10 to 12×10^6 cells. Cells were trypsinized, washed and plated in multiwell plates at a density of 5×10^4 cells/well in 3 mL of RPMI 1640 media. The cells were allowed to attach and were in logarithmic growth when the test compounds were added. The test compounds (10^-6 M) in the presence or absence of a 10-fold lower dose of estradiol were dissolved in a polyethylene glycol 400: ethanol (55:45) mixture and added in the culture media in duplicate. Control samples received vehicle alone at the same concentration used in the treatment groups. The final concentration of the vehicle mixture was 0.1% of the incubation media. Cell growth was measured on alternate days using the hemocytometric trypan blue exclusion method. Percent inhibition of MCF-7 cells was calculated as the ratio of the control mean cell count per well minus the treatment group mean cell count per well to the control mean cell count per well, multiplied by 100.
^b % MCF7 inhibition was calculated as follows: […]
Thirteen compounds, Analog II, TAM, and MER 25 were tested for their antiproliferative activity in the MCF-7 human breast cancer cell line (Table II). Compounds were tested at a concentration of 10^-6 M in the presence or absence of 10^-7 M estradiol to assess their ability to alter the growth of the calls (Table II). The 10^-6 M concentration was selected since it was reported that the inhibition of the MCF-7 cells by antiestrogens and TAM occurred either at that concentration or less, and were both selective and estrogen receptor specific. Concentrations of antiestrogens greater than 5×10^-6 M were reported to have nonspecific cytotoxic effects (BRIAND, P. AND […], A. E. (1984), "Effect of estrogen and antiestrogen on the human breast cancer cell line MCF-7 adapted to growth at low serum concentration", Cancer Research, 44, 1114).

Test [2] concerns Immature Swiss-Webster female mice (uterine weight). In words: Uterotrophic assay for estrogenic activity in immature mice. It counts as in vivo, mouse (Swiss-Webster). The note with it: for uterine weight response (estrogenic activity, in words): doses of 5, 25 and 100 μg (total dose); for uterotrophic response on retest (in words): retested at 100, 250, and 500 μg.
From the text: The biological evaluation of the test compounds consisted of the in vitro rat cytosolic estradiol receptor binding assay, the in vivo immature mouse uterotrophic (estrogenic) and antiuterotrophic (antiestrogenic) assays, and the in vitro suppression of the proliferation of the ER positive MCF-7 human breast cancer cell line.
as §2
Immature Swiss-Webster female mice (8-15 g) at 17-19 days of age were used. Estradiol was used in the dosage range of […] (total dose) as the assay standard. Each cyclopropyl analogue was examined at doses of 5, 25, and 100 μg (total dose). […] Estrogenic activity was measured as an increase in uterine weight produced by each test compound.

The mark [3] stands for this setting: MCF7, 10^-6 M, versus control mean cell count, read-out: MCF-7 Inhibition.
The mark [4] stands for this setting: MCF7, 10^-6 M, printed as dash with footnote g, read-out: MCF-7 Inhibition.
Setting [5] is: average of duplicate determinations minus nonspecific binding.
Where [6] appears, read: MCF7, read-out: MCF-7 Inhibition.

Where two headings read alike, the source gives them in different places.

The inhibition is the share of the control response that was lost under treatment. In the case of `COc1ccc([C@H]2[C@@H](c3ccccc3)C2(Cl)Cl)cc1` (relative stereo) [Compound 8, 1,1-Dichloro-cis-2-(p-methoxyphenyl)-3-phenylcyclopropane], the “RBA ranking (in words)” value at estrogen receptor (among the compounds tested) was “lowest RBA”. The “[3H]-estradiol displacement curve (in words)” value at estrogen receptor is “dose-dependent displacement curves with shallower slopes than their acetoxy and phenolic analogues”. Further, the “RBA (relative binding affinity)” value at estrogen receptor (given as dash with footnote e) is “--^e (Less than 0.01%.)”. Further, in test [1] (10^-6 M), the “effect on MCF-7 cell growth (in words)” value was “inhibited cell growth”. The inhibition at 1 µM in test [1] (setting [3]) worked out at 25.3%. Further, the “uterine weight response (estrogenic activity, in words)” value (shortened to “uterine weight response”) in test [2] is recorded as “well below the control group”.
For `COc1ccc([C@H]2[C@H](c3ccccc3)C2(Cl)Cl)cc1` (relative stereo) [Compound 16, 1,1-Dichloro-trans-2-(p-methoxyphenyl)-3-phenylcyclopropane], at estrogen receptor, the “[3H]-estradiol displacement curve (in words)” value was “dose-dependent displacement curves with shallower slopes than their acetoxy and phenolic analogues”. For the same compound, the “RBA (relative binding affinity)” value at estrogen receptor (given as dash with footnote e) is listed as “--^e (Less than 0.01%.)”. For the same compound, the “effect on MCF-7 cell growth (in words)” value in test [1] (10^-6 M) is recorded as “did not”. In addition, the inhibition at 1 µM in test [1] (setting [4]) is below 10%. For the same compound, in test [2], the “uterine weight response” value is “slight increase in uterine weight at doses of 25 and 100 μg”; the “uterotrophic response on retest (in words)” value was “no significant uterotrophic responses”.
As to `CC(=O)Oc1ccc([C@H]2[C@H](c3ccccc3)C2(Cl)Cl)cc1` (relative stereo) [Compound 18, 1,1-Dichloro-trans-2-(p-acetoxyphenyl)-3-phenylcyclopropane], the “RBA (relative binding affinity)” value at estrogen receptor (setting [5]) was 0.25%. Also, the “effect on MCF-7 cell growth (in words)” value in test [1] (10^-6 M) was “did not”. The inhibition at 1 µM in test [1] (setting [4]) was below 10%.
For `COc1ccc([C@@H]2[C@H](c3ccc(OC)cc3)C2(Cl)Cl)cc1` [Compound 14, 1,1-Dichloro-cis-2,3-bis-(p-methoxyphenyl) cyclopropane], the “[3H]-estradiol displacement curve (in words)” value at estrogen receptor is “dose-dependent displacement curves with shallower slopes than their acetoxy and phenolic analogues”. The “RBA (relative binding affinity)” value at estrogen receptor (setting [5]) was found to be 0.01%. Moreover, the “effect on MCF-7 cell growth (in words)” value in test [1] (10^-6 M) is “inhibited cell growth”. Moreover, the inhibition at 1 µM in test [1] (setting [3]) is 37%.
Turning to `COc1ccc(C2(c3ccc(OC)cc3)CC2(Cl)Cl)cc1` [Compound 23, 1,1-Dichloro-2,2-bis-(p-methoxyphenyl)cyclopropane], the “[3H]-estradiol displacement curve (in words)” value on estrogen receptor was “dose-dependent displacement curves with shallower slopes than their acetoxy and phenolic analogues”. Moreover, the “RBA (relative binding affinity)” value on estrogen receptor (given as dash with footnote e) was “--^e (Less than 0.01%.)”. In addition, in test [1] (10^-6 M), the “effect on MCF-7 cell growth (in words)” value is listed as “inhibited cell growth”. Also, in test [1] (setting [6]), the inhibition at 1 µM came to 30%. Moreover, the “uterine weight response” value in test [2] was “well below the control group”.
Regarding `COc1ccc(C2(c3ccc(O)cc3)CC2(Cl)Cl)cc1` (stereo not shown) [Compound 24, 1,1-Dichloro-2-(p-methoxyphenyl)-2-(p-hydroxyphenyl)cyclopropane], the “RBA (relative binding affinity)” value on estrogen receptor (setting [5]) came to 0.02%. Further, the “effect on MCF-7 cell growth (in words)” value in test [1] (10^-6 M) is given as “only 23 inhibited cell growth”. For the same compound, the inhibition at 1 µM in test [1] (setting [6]) is below 10%.
Turning to `Oc1ccc(C2(c3ccc(O)cc3)CC2(Cl)Cl)cc1` [Compound 25, 1,1-Dichloro-2,2-bis-(p-hydroxyphenyl) cyclopropane], the “RBA (relative binding affinity)” value at estrogen receptor (setting [5]) is listed as 0.04%. The “effect on MCF-7 cell growth (in words)” value in test [1] (10^-6 M) is given as “only 23 inhibited cell growth”. Besides, in test [1] (setting [6]), the inhibition at 1 µM is below 10%. Moreover, the “uterine weight response” value in test [2] is “well below the control group”.
`COc1ccc(C2(c3ccc(OC)cc3)C(Cl)(Cl)C23CCCCC3)cc1` [Compound 29, 1,1-Dichloro-2,2-bis-(p-methoxyphenyl)-spiro[2.5]octane]: the “[3H]-estradiol displacement curve (in words)” value at estrogen receptor was “dose-dependent displacement curves with shallower slopes than their acetoxy and phenolic analogues”. Further, the “RBA (relative binding affinity)” value at estrogen receptor (given as dash with footnote e) is “--^e (Less than 0.01%.)”. Further, the “effect on MCF-7 cell growth (in words)” value in test [1] (10^-6 M) is recorded as “active inhibitors of cell growth”. Further, the inhibition at 1 µM in test [1] (setting [6]) turned out to be 37%. In addition, in test [2], the “uterine weight response” value is “slight increase in uterine weight at doses of 25 and 100 μg”; the “uterotrophic response on retest (in words)” value is “no significant uterotrophic responses”.
`CC(=O)Oc1ccc(C2(c3ccc(OC(C)=O)cc3)C(Cl)(Cl)C23CCCCC3)cc1` [Compound 31, 1,1-Dichloro-2,2-bis-(p-acetoxyphenyl)-spiro[2.5]octane]: at estrogen receptor (setting [5]), the “RBA (relative binding affinity)” value came to 0.05%. Further, in test [1] (setting [6]), the inhibition at 1 µM was below 10%. For the same compound, the “uterine weight response” value in test [2] was “well below the control group”.
